Assay results from article PMC9861386, “N-Heterocyclic Carbene-Iridium Complexes as Photosensitizers for In Vitro Photodynamic Therapy to Trigger Non-Apoptotic Cell Death in Cancer Cells” (Molecules, 2023).
Where a SMILES comes first, the peptide text is derived from it. The star is where a group is joined. Cbz = O=C(OCc1ccccc1)*; CH2F = FC*

Key:
MCF7/FasR cells = assay: Cell death with or without pan-caspase inhibitor z-VAD-fmk, MTT; type: cell-based, human; conditions: 72 h
From the text: To determine the mechanism of cell death, we used MCF7 cells transfected to express the human Fas receptor (FasR) or doubly transfected to express the human Fas receptor and human Bcl-xL [75]. Since MCF7 cells express the TNF receptor endogenously, this allowed the study of both Fas- and TNFα-mediated apoptosis in the same cell model to assess whether cell death was dependent on the Bcl-2 family of mitochondrial proteins such as Bcl-xL. […] This is consistent with findings that death receptors such as FasR and TNFR can mediate apoptosis through both the extrinsic pathway (mitochondria-independent by directly activating executioner caspases via upstream caspase-8) and the intrinsic (mitochondrial) pathway controlled by the Bcl-2 family of proteins.
We next evaluated the effect of the pan-caspase inhibitor z-VAD-fmk on caspase signaling. As expected, the treatment with z-VAD-fmk rendered MCF7/FasR cells resistant to TNFα-induced PARP and caspase-7 processing (Figure 14A) and to the loss of cell viability (Figure 14B).
A tetrazolium-based MTT reagent (3-(4,5-dimethylthiazol-2-yl)-2,5-diphenyltetrazolium bromide) was used to determine cell viability, as previously described. After 72 h of treatment at 37 °C and 5% CO2, cells were incubated with 25 μL MTT solution (5 mg/mL; Sigma-Aldrich) for 4 h. After solubilization with 500 μL of lysis buffer (DMSO), formazan was quantified by spectrophotometry with a microplate reader at 570 nm absorbance (ClarioSTAR, BMG LabTech, Champigny-sur-Marne, France). […] All results were calculated from data obtained in at least three independent experiments.
Figure 11 Bcl-xL and z-VAD-fmk inhibited by Fas- or TNFα-induced cell death in MCF7 cells. […] Cell death was assessed by MTT assay. […]
Figure 14 Evaluation of apoptotic biomarkers. […] (B) Cell viability was evaluated in duplicate samples. Data are expressed as percent (%) of untreated cells and are the means of 3 independent experiments (***, p < 0.0001, NS, not significant).

[1] = Photophysical measurements (emission, quantum yield, lifetime) in CH2Cl2; type: physicochemical; conditions: CH2Cl2, 298 K, references POPOP and quinine sulfate
From the text: All complexes have been photophysically investigated at standard pressure in CH2Cl2 at 298 K. The absorption spectra of complexes 4a to 4g in CH2Cl2 at 298 K are shown in Figure 7. The strong absorption bands below 300 nm correspond to spin-allowed ^1π→π* electronic ligand-centered (LC) transitions. The structureless bands at 300–360 nm are attributed to ppy-to-ppy ^1π→π* […] charge transfer (LLCT) and Ir-to-ppy metal-to-ligand charge transfer (MLCT) transitions. The lowest-lying bands in the visible region can be assigned to both singlet and triplet MLCT transitions. No significant difference in the absorption spectra of complexes 4a to 4g can be found in the CH2Cl2 solution.
The luminescence spectra of complexes 4a to 4f in CH2Cl2 at 298 K are shown in Figure 8 and their photophysical data are summarized in Table 1.
The relative emission quantum yields (ΦPL) of these complexes in CH2Cl2 at room temperature were measured by using POPOP and quinine sulfate in 1 N H2SO4 as standard references (ΦPL = 97% and ΦPL = 54%, respectively). […] In addition, the excited-state lifetimes of complexes 4a to 4d are in the range of 166.4–190.7 ns, indicating the phosphorescence nature of the emissions.
UV/Vis absorption spectra were recorded at RT on solutions contained in quartz cuvettes (optical pathlength 1 cm, Hellma® (HELLMA, Müllheim, Germany)) with a PerkinElmer® (PerkinElmer, Waltham, MA, USA) UV/VIS/NIR spectrophotometer Lambda 950 and a PerkinElmer® detector UV/VIS/NIR Accessory 2D Detector Module.
Fluorescence and phosphorescence emission spectra were obtained with a HORIBA JOBIN YVON (Bensheim, Germany) fluromax-4 and spectrofluorometer.
Luminescence quantum yields were measured according to the method of Demas and Crosby, on solution samples at RT. The quantum yield is defined as: ΦS=ΦR*As/Ar* ηs/ηr^2^2 where ΦS is the quantum yield of the sample, ΦR is the known quantum yield of the reference standard at the area subtended by the emission band (on a wavelength scale) and η is the refractive index of the solvent used for the preparation of the solution. As (related to the sample) and Ar (related to the reference) must be excitation wavelength. Different standards were selected depending on the spectral region of the interest: POPOP in hexane (Φ = 97%) and QUININNE in water (Φ = 54%).
Fluorescence lifetime measurements were performed by an Edinburgh FLS920 spectrofluorometer equipped with a TCC900 card for data acquisition in time-correlated single-photon counting experiments (0.5 ns time resolution) with a D2 lamp and an LDH-P-C-405 pulsed diode laser. The estimated experimental error was 2 nm on the band maximum (5% on the lifetime, 10% on the fluorescence quantum yield).

[2] = Octanol–water partition coefficient, shake-flask method; type: physicochemical; conditions: n-octanol/water, UV absorbance 260 nm
Protocol: Lipophilicities of all complexes have been measured by the classical shake-flask method, using UV absorption. The Log p values range from -0.063 to 0.861 in increasing order –0.063 (4a), 0.035 (4d), 0.519 (4f), 0.581 (4c), 0.842 (4b), 0.847 (4e) and 0.861 (4g).
The octanol–water partition coefficients (P) of 4a to 4g were determined using a shake-flask method. Water (100 mL, distilled after milli-Q purification) and n-octanol (100 mL, Sigma-Aldrich, St. Louis, MO, USA, ACS spectrophotometric grade, ≥99%) were shaken together for 24 h to allow saturation of both phases. Stock solutions of the […] compounds (50 μM) were prepared in the aqueous phase and aliquots (1 mL) of each of these stock solutions were then added to an equal volume of the n-octanol phase. The resultant biphasic solutions were mixed for 1 h and then centrifuged (3000× g, 5 min) (Eppendorf Centrifuges 5415R and 5804R) to separate the phases. The concentrations of the complexes in the organic and aqueous phases were then determined using UV absorbance spectroscopy (260 nm). Log P was defined as the logarithm of the ratio of the concentrations of the studied complex in the organic and aqueous phases (Log P = Log {[Ir(org)]/[Ir(aq)]}; values reported are the means of at least two separate determinations).

PC-3 = assay: MTT cytotoxicity, 48 h; type: cell-based, human; conditions: for GI50: MTT; for SI (PC-3): NIH3T3 vs PC-3
Protocol: (§1) The in vitro cytotoxicity of iridium(III) complexes 4a–4g was first evaluated against cancer cell lines PC-3 (human prostate) and T24 (human bladder) and the non-cancerous NIH-3T3 cell line (murine fibroblasts) using colorimetric MTT tests after 48 h of treatment. The dimeric iridium precursor [IrCl(ppy)2]2 was used as reference and the results are summarized in Table S1 (Supplementary Materials) in the supporting information file. […] The complexes were also evaluated for their cytotoxicity towards healthy NIH-3T3 cells, giving access to the selectivity index (SI). […] No linear correlation between lipophilicity and anti-cancer activity was found for the iridium(III) complexes 4a–4g. For the following biological studies, we focused on the C1 series.
(§2) Table S1. Cytotoxic activity of iridium(III) NHC complexes 4a−4g expressed as GI50 (μM) values towards selected cancer and normal cell lines as determined by MTT assay (48 h).a Complex PC-3 T24 NIH3T3 SI (PC-3) SI (T24) […]
(§3) a GI50 values correspond to the concentration of complexes causing 50 % inhibition of cell growth.
(§4) Data were obtained from three independent experiments.
(§5) The cytotoxic effects of the NHC precursors, the imidazolium salts, which represents the potential hydrolysis and/or degradation products of the complexes, have been published before [SI-1, SI-2]. […]

T24 = assay: MTT cytotoxicity, 48 h; type: cell-based, human; conditions: for GI50: MTT; for SI (T24): NIH3T3 vs T24
Protocol: as §1, §2, §3, §4, §5

NIH3T3 = assay: MTT cytotoxicity, 48 h; type: cell-based, murine
Protocol: as §1, §2, §3, §4, §5

[3] = system: MCF7/FasR and MCF7/FasR/Bcl-xL cells; assay: GSH quantification (GSH-Glo); type: cell-based, human; conditions: complex 4a all doses with 458 nm irradiation; TNFα 100 ng/mL; 72 h
Protocol: ATP and glutathione (GSH) contents were measured with the Promega CellTiter-Glo (Cat#G7570) and GSH-Glo (cat#6911) luminescent assays, respectively, according to the manufacturer’s recommendations.
Figure 13 Evaluation of apoptotic biomarkers. MCF7/FasR and MCF7/FasR/Bcl-xL cells were irradiated at 458 nm in presence of the indicated concentration of complex 4a or treated with […] TNFα for 72 h. (A) Cytosolic extracts from MCF7/FasR and MCF7/FasR/Bcl-xL cells were separated by SDS-PAGE and probed with anti-PARP, anti-caspase-7 and anti-caspase-8. Migrations indicated are: full-length PARP p113, cleaved PARP p89, full-length caspase-7 and full-length caspase-8. (B) MTT, ATP and GSH assays were evaluated in duplicate samples. Data are expressed as percent (%) of untreated cells and are the means of 3 independent experiments (***, p < 0.0001, NS, not significant).

[4] = system: MCF7/FasR and MCF7/FasR/Bcl-xL cells; assay: Bcl-xL dependence of cell death, MTT in MCF7/FasR vs MCF7/FasR/Bcl-xL; type: cell-based, human; conditions: complexes: 458 nm irradiation, 10 nM to 1 µM, TNFα 100 ng/mL, 72 h
From the text: To determine the mechanism of cell death, we used MCF7 cells transfected to express the human Fas receptor (FasR) or doubly transfected to express the human Fas receptor and human Bcl-xL [75]. Since MCF7 cells express the TNF receptor endogenously, this allowed the study of both Fas- and TNFα-mediated apoptosis in the same cell model to assess whether cell death was dependent on the Bcl-2 family of mitochondrial proteins such as Bcl-xL. […]
Mitochondrial outer membrane permeabilization (MOMP), which leads to rapid cell death through the release of mitochondrial proteins (including cytochrome c) that activate executioner caspases, is the critical event in intrinsic apoptosis. […] We then assessed whether the cell death induced by our complexes could be abrogated by the overexpression of Bcl-xL.
A tetrazolium-based MTT reagent (3-(4,5-dimethylthiazol-2-yl)-2,5-diphenyltetrazolium bromide) was used to determine cell viability, as previously described. […] After solubilization with 500 μL of lysis buffer (DMSO), formazan was quantified by spectrophotometry with a microplate reader at 570 nm absorbance (ClarioSTAR, BMG LabTech, Champigny-sur-Marne, France). […] All results were calculated from data obtained in at least three independent experiments. […]
Figure 13 Evaluation of apoptotic biomarkers. […] (B) MTT, ATP and GSH assays were evaluated in duplicate samples. […]

Row | Compound | effect on cell death induced by Fas antibody and TNFα (MCF7/FasR cells; 10 µM z-VAD-fmk, MCF7/FasR and MCF7/FasR/Bcl-xL) | ΦPL emission quantum yield [1] [%] | Log P [2] | GI50 (PC-3) [µM] | SI (PC-3) (PC-3) | GI50 (T24) [µM] | SI (T24) (T24) | GI50 (NIH3T3) [µM] | reduction in cell viability (MCF7/FasR cells; TNFα 100 ng/mL, MCF7/FasR, MTT) | level of reduced GSH [3] | effect of Bcl-xL overexpression on loss of cell viability [4]
1 | COC(=O)C[C@H](NC(=O)[C@H](C)NC(=O)[C@@H](NC(=O)OCc1ccccc1)C(C)C)C(=O)CF [z-VAD-fmk, reference compound] (Cbz-Val-Ala-Asp(OMe)-CH2F) | completely abolished cell death | – | – | – | – | – | – | – | – | – | –
2 | CC(C)C[n+]1ccn2[c]1[Ir-3]13([c]4ccccc4-c4cccc[n+]41)([c]1ccccc1-c1cccc[n+]13)[c]1n(cc[n+]1CC(C)C)CC2.F[P-](F)(F)(F)(F)F [Complex 4f] | – | 0.2 | 0.519 | 0.91 | 4.5 | 0.91 | 4.5 | 4.1 | – | – | –
3 | F[P-](F)(F)(F)(F)F.c1ccc(C[n+]2ccn3[c]2[Ir-3]24([c]5ccccc5-c5cccc[n+]52)([c]2ccccc2-c2cccc[n+]24)[c]2n(cc[n+]2Cc2ccccc2)CC3)cc1 [Complex 4e] | – | 0.2 | 0.847 | 0.25 | 10.0 | 0.29 | 8.6 | 2.5 | – | – | –
4 | TNFα | – | – | – | – | – | – | – | – | 65–85% | decreased | strongly inhibited by Bcl-xL
